molecular target: T1, MDM2 (Homo sapiens, UniProt Q00987); test: Inhibition test of MDM2-P53 (GST-MDM2, Biotin-P53, Anti-GST-Tb, SA-XL665); assay type: binding
T1 construct: made in house
Summary of the method: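 Binding was measured by TR-FRET with GST-MDM2 at 4 nM final in PBS with 0.1% BSA, 5 mM DTT and 1 mM AEBSF. Compounds were tested as twelve-point 5-fold dilutions and incubated with the detection mix for 90 min at 25 °C with shaking before plate-reader reading and curve fitting.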

T1 sequence (Q00987 whole entry): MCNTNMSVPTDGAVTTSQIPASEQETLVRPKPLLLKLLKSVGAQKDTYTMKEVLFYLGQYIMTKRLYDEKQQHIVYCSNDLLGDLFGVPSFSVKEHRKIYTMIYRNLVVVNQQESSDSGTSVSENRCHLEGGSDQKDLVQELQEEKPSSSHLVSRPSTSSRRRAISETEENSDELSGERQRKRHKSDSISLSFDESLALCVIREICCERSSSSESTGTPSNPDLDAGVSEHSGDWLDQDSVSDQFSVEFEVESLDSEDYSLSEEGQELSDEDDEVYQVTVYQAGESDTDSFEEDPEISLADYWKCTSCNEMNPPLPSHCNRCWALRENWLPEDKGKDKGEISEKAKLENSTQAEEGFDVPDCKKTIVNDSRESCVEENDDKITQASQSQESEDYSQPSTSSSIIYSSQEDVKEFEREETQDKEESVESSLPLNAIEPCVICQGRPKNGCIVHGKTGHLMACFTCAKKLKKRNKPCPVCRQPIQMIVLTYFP

| SMILES | IC50 [nM] |
| --- | --- |
| COc1ccc(-c2nc3c(n2C(C)C)[C@]2(C(=O)Nc4cc(Cl)ccc42)N(c2cc(Cl)ccc2C)C3=O)cc1 [Example R-64, (R)-6-chloro-5′-(5-chloro-2-methylphenyl)-3′-isopropyl-2′-(4-methoxyphenyl)-3′H-spiro[dihydroindole-3,4′-pyrrolo[3,4-d]imidazole]-2,6′(5′H)-dione] | 1020 |
| COc1cc(OC)c(-c2nc3c(n2C(C)C)[C@]2(C(=O)Nc4cc(Cl)ccc42)N(c2ccc(C(N)=O)c(Cl)c2)C3=O)cn1 [Example R-65, (R)-2-chloro-4-(6-chloro-2′-(4,6-dimethoxypyridin-3-yl)-3′-isopropyl-2,6′-dioxo-3′,6′-dihydro-5′H-spiro[dihydroindole-3,4′-pyrrolo[3,4-d]imidazole]-5′-yl)benzamide] | 498 |
| COc1cc(C(=O)N(C)C)ccc1-c1nc2c(n1C(C)C)[C@]1(C(=O)Nc3cc(Cl)ccc31)N(c1cc(Cl)ccc1C)C2=O [Example R-68, (R)-4-(6-chloro-5′-(5-chloro-2-methylphenyl)-3′-isopropyl-2,6′-dioxo-5′,6′-dihydro-3′H-spiro[dihydroindole-3,4′-pyrrolo[3,4-d]imidazole]-2′-yl)-3-methoxy-N,N-dimethylbenzamide] | 657 |
| COc1cc(N)ccc1-c1nc2c(n1C(C)C)[C@]1(C(=O)Nc3cc(Cl)ccc31)N(c1ccc(F)c(Cl)c1)C2=O [Example R-73, (R)-2′-(4-amino-2-methoxyphenyl)-6-chloro-5′-(3-chloro-4-fluorophenyl)-3′-isopropyl-3′H-spiro[dihydroindole-3,4′-pyrrolo[3,4-d]imidazole]-2,6′(5′H)-dione] | 142 |
| COc1c(F)cccc1-c1nc2c(n1C(C)C)[C@]1(C(=O)Nc3cc(Cl)ccc31)N(c1cc(Cl)ccc1C)C2=O [Example R-76, (R)-6-chloro-5′-(5-chloro-2-methylphenyl)-2′-(3-fluoro-2-methoxyphenyl)-3′-isopropyl-3′H-spiro[dihydroindole-3,4′-pyrrolo[3,4-d]imidazole]-2,6′(5′H)-dione] | 579 |
| COc1cc(C(N)=O)ccc1-c1nc2c(n1C(C)C)[C@]1(C(=O)Nc3cc(Cl)ccc31)N(c1cc(Cl)ccc1C)C2=O [Example R-77, (R)-4-(6-chloro-5′-(5-chloro-2-methylphenyl)-3′-isopropyl-2,6′-dioxo-5′,6′-dihydro-3′H-spiro[dihydroindole-3,4′-pyrrolo[3,4-d]imidazole]-2′-yl)-3-methoxybenzamide] | 139 |
| COc1cccc(OC)c1-c1nc2c(n1C(C)C)[C@]1(C(=O)Nc3cc(Cl)ccc31)N(c1cc(Cl)ccc1C)C2=O [Example R-79, (R)-6-chloro-5′-(5-chloro-2-methylphenyl)-2′-(2,6-dimethoxyphenyl)-3′-isopropyl-3′H-spiro[dihydroindole-3,4′-pyrrolo[3,4-d]imidazole]-2,6′(5′H)-dione] | 285 |
| COc1ccc(-c2nc3c(n2C(C)C)[C@]2(C(=O)Nc4cc(Cl)ccc42)N(c2cc(Cl)ccc2F)C3=O)c(OC)c1 [Example R-80, (R)-6-chloro-5′-(5-chloro-2-fluorophenyl)-2′-(2,4-dimethoxyphenyl)-3′-isopropyl-3′H-spiro[dihydroindole-3,4′-pyrrolo[3,4-d]imidazole]-2,6′(5′H)-dione] | 363 |
| COc1nc(N(C)C)ncc1-c1nc2c(n1C(C)C)[C@]1(C(=O)Nc3cc(Cl)ccc31)N(c1cc(Cl)ccc1C)C2=O [Example R-82, (R)-6-chloro-5′-(5-chloro-2-methylphenyl)-2′-(2-(dimethylamino)-4-methoxypyrimidin-5-yl)-3′-isopropyl-3′H-spiro[dihydroindole-3,4′-pyrrolo[3,4-d]imidazole]-2,6′(5′H)-dione] | 394 |
| COc1cc(C2CC2)ccc1-c1nc2c(n1C(C)C)[C@]1(C(=O)Nc3cc(Cl)ccc31)N(c1cc(Cl)ccc1C)C2=O [Example R-86, (R)-6-chloro-5′-(5-chloro-2-methylphenyl)-2′-(4-cyclopropyl-2-methoxyphenyl)-3′-isopropyl-3′H-spiro[dihydroindole-3,4′-pyrrolo[3,4-d]imidazole]-2,6′(5′H)-dione] | 142 |
| CCOc1ccc(-c2nc3c(n2C(C)C)[C@]2(C(=O)Nc4cc(Cl)ccc42)N(c2cc(Cl)ccc2C)C3=O)c(OC)c1 [Example R-88, (R)-6-chloro-5′-(5-chloro-2-methylphenyl)-2′-(4-ethoxy-2-methoxyphenyl)-3′-isopropyl-3′H-spiro[dihydroindole-3,4′-pyrrolo[3,4-d]imidazole]-2,6′(5′H)-dione] | 399 |
| COc1cc(C(C)C)ccc1-c1nc2c(n1C(C)C)[C@]1(C(=O)Nc3cc(Cl)ccc31)N(c1cc(Cl)cnc1C)C2=O [Example R-89, (R)-6-chloro-5′-(5-chloro-2-methylpyridin-3-yl)-3′-isopropyl-2′-(4-isopropyl-2-methoxyphenyl)-3′H-spiro[dihydroindole-3,4′-pyrrolo[3,4-d]imidazole]-2,6′(5′H)-dione] | 569 |
| COc1nc(N)ncc1-c1nc2c(n1C(C)C)[C@]1(C(=O)Nc3cc(Cl)ccc31)N(c1cc(Cl)ccc1C)C2=O [Example R-90, (R)-2′-(2-amino-4-methoxypyrimidin-5-yl)-6-chloro-5′-(5-chloro-2-methylphenyl)-3′-isopropyl-3′H-spiro[dihydroindole-3,4′-pyrrolo[3,4-d]imidazole]-2,6′(5′H)-dione] | 310 |
| COc1cc(C(C)C)ccc1-c1nc2c(n1C(C)C)[C@]1(C(=O)Nc3cc(Cl)ccc31)N(c1cccc(Cl)c1)C2=O [Example R-93, (R)-6-chloro-5′-(3-chlorophenyl)-3′-isopropyl-2′-(4-isopropyl-2-methoxyphenyl)-3′H-spiro[dihydroindole-3,4′-pyrrolo[3,4-d]imidazole]-2,6′(5′H)-dione] | 658 |
| CCOc1ccc(-c2nc3c(n2C(C)C)[C@]2(C(=O)Nc4cc(Cl)ccc42)N(c2cc(Cl)ccc2F)C3=O)c(OC)c1 [Example R-94, (R)-6-chloro-5′-(5-chloro-2-fluorophenyl)-2′-(4-ethoxy-2-methoxyphenyl)-3′-isopropyl-3′H-spiro[dihydroindole-3,4′-pyrrolo[3,4-d]imidazole]-2,6′(5′H)-dione] | 840 |
| COc1cc(OC(C)C)ncc1-c1nc2c(n1C(C)C)[C@]1(C(=O)Nc3cc(Cl)ccc31)N(c1cccc(Cl)c1)C2=O [Example R-95, (R)-6-chloro-5′-(3-chlorophenyl)-2′-(6-isopropoxy-4-methoxypyridin-3-yl)-3′-isopropyl-3′H-spiro[dihydroindole-3,4′-pyrrolo[3,4-d]imidazole]-2,6′(5′H)-dione] | 1670 |
| CCOc1cc(OC)c(-c2nc3c(n2C(C)C)[C@]2(C(=O)Nc4cc(Cl)ccc42)N(c2cc(Cl)cnc2C)C3=O)cn1 [Example R-96, (R)-6-chloro-5′-(5-chloro-2-methylpyridin-3-yl)-2′-(6-ethoxy-4-methoxypyridin-3-yl)-3′-isopropyl-3′H-spiro[dihydroindole-3,4′-pyrrolo[3,4-d]imidazole]-2,6′(5′H)-dione] | 151 |
| CCOc1cc(OC)c(-c2nc3c(n2C(C)C)[C@]2(C(=O)Nc4cc(Cl)ccc42)N(c2cc(Cl)ccc2F)C3=O)cn1 [Example R-98, (R)-6-chloro-5′-(5-chloro-2-fluorophenyl)-2′-(6-ethoxy-4-methoxypyridin-3-yl)-3′-isopropyl-3′H-spiro[dihydroindole-3,4′-pyrrolo[3,4-d]imidazole]-2,6′(5′H)-dione] | 1030 |
| CCOc1ccc(-c2nc3c(n2C(C)C)[C@]2(C(=O)Nc4cc(Cl)ccc42)N(c2cccc(Cl)c2)C3=O)c(OC)c1 [Example R-100, (R)-6-chloro-5′-(3-chlorophenyl)-2′-(4-ethoxy-2-methoxyphenyl)-3′-isopropyl-3′H-spiro[dihydroindole-3,4′-pyrrolo[3,4-d]imidazole]-2,6′(5′H)-dione] | 633 |
| COc1cc(C(C)(C)C)ccc1-c1nc2c(n1C(C)C)[C@]1(C(=O)Nc3cc(Cl)ccc31)N(c1cc(Cl)ccc1C)C2=O [Example R-101, (R)-2′-(4-(tert-butyl)-2-methoxyphenyl)-6-chloro-5′-(5-chloro-2-methylphenyl)-3′-isopropyl-3′H-spiro[dihydroindole-3,4′-pyrrolo[3,4-d]imidazole]-2,6′(5′H)-dione] | 2000 |
| CCOc1cc(OC)c(-c2nc3c(n2C(C)C)[C@]2(C(=O)Nc4cc(Cl)ccc42)N(c2cccc(Cl)c2)C3=O)cn1 [Example R-102, (R)-6-chloro-5′-(3-chlorophenyl)-2′-(6-ethoxy-4-methoxypyridin-3-yl)-3′-isopropyl-3′H-spiro[dihydroindole-3,4′-pyrrolo[3,4-d]imidazole]-2,6′(5′H)-dione] | 413 |
| CCN(CC)c1ccc(-c2nc3c(n2C(C)C)[C@]2(C(=O)Nc4cc(Cl)ccc42)N(c2cc(Cl)ccc2C)C3=O)c(OC)c1 [Example R-105, (R)-6-chloro-5′-(5-chloro-2-methylphenyl)-2′-(4-(diethylamino)-2-methoxyphenyl)-3′-isopropyl-3′H-spiro[dihydroindole-3,4′-pyrrolo[3,4-d]imidazole]-2,6′(5′H)-dione] | 343 |
| COc1cc(C2CC2)ncc1-c1nc2c(n1C(C)C)[C@]1(C(=O)Nc3cc(Cl)ccc31)N(c1cccc(Cl)c1)C2=O [Example R-106, (R)-6-chloro-5′-(3-chlorophenyl)-2′-(6-cyclopropyl-4-methoxypyridin-3-yl)-3′-isopropyl-3′H-spiro[dihydroindole-3,4′-pyrrolo[3,4-d]imidazole]-2,6′(5′H)-dione] | 481 |
| COc1cc(C2CC2)cc(OC)c1-c1nc2c(n1C(C)C)[C@]1(C(=O)Nc3cc(Cl)ccc31)N(c1cc(Cl)ccc1C)C2=O [Example R-108, (R)-6-chloro-5′-(5-chloro-2-methylphenyl)-2′-(4-cyclopropyl-2,6-dimethoxyphenyl)-3′-isopropyl-3′H-spiro[dihydroindole-3,4′-pyrrolo[3,4-d]imidazole]-2,6′(5′H)-dione] | 691 |

From patent US11339171B2, “MDM2 inhibitors” (Gan & Lee Pharmaceuticals, priority 2017, dated 2022)
